# Source: ChEMBL document CHEMBL1201862, “PubChem BioAssay data set” (2004)
# The source made the active and inactive calls.
# What was measured:
# [1] = HEK293 cell cytotoxicity, dose response, cytotoxicity control, cherry-picks, set 5 (AID 1053117); format: functional, cell-based
# Paired box protein Pax-8 = Paired box protein Pax-8 (Homo sapiens, UniProt Q06710); experiment: inhibitors of PAX8-driven TPO luciferase reporter, dose response, RMG-I cells, cherry-pick (AID 687027); format: functional, cell-based;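 also: luciferase reporter driven by Pax8 target thyroperoxidase promoter measured by SteadyGlo luminescence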
# [2] = non-specific cell cytotoxicity, dose response, cytotoxicity control for PAX8 inhibitor project, plate reader, dry powder samples (AID 743021); format: functional, cell-based
# HeLa = experiment: HeLa cell cytotoxicity, dose response, cytotoxicity control, ATP luminescence, cherry-pick samples (AID 687004); format: functional, cell-based; details: Homo sapiens
# [3] = P. falciparum 3D7-ScDHODH growth inhibitors, dose response, SYBR Green, dry powder samples (AID 1159570); format: functional, cell-based;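 also: parasite growth measured after 72 hours of compound exposure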
# [4] = HepG2 cell cytotoxicity, dose response, cytotoxicity control, plate reader, dry powder samples (AID 1159569); format: functional, cell-based;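 also: inhibitor potency with signal falling toward the positive control level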
# [5] = P. falciparum Dd2 growth inhibitors, dose response, SYBR Green, cherry-picked samples (AID 1159567); format: functional, cell-based
# [6] = P. falciparum Dd2 growth inhibitors, dose response, SYBR Green, dry powder samples (AID 1159566); format: functional, cell-based;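 also: potency for growth inhibition with lower SYBR green DNA signal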
# [7] = HepG2 cell cytotoxicity, dose response, cytotoxicity control, cherry-picked samples (AID 1159577); format: functional, cell-based
# [8] = P. falciparum ATP4 D1247Y mutant growth inhibitors, dose response, NITD609-resistant line, SYBR Green, dry powder (AID 1159571); format: functional, cell-based;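 also: parasites synchronized at ring stage by sorbitol before testing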
# [9] = NIH:OVCAR-3 ovarian cancer cell cytotoxicity, dose response, PAX8 inhibitor project, plate reader, dry powder samples (AID 743044); format: functional, cell-based
# [10] = IGROV1 ovarian cancer cell cytotoxicity, dose response, PAX8 inhibitor project, plate reader, dry powder samples (AID 743043); format: functional, cell-based; details: IGROV-1
# [11] = target: T1, Rac GTPase-activating protein 1 (Homo sapiens, UniProt Q9H0H5); experiment: MgcRacGAP GTPase-activating activity inhibitors, confirmation, biochemical, ADP Hunter fluorescence, primary and confirmatory (AID 624330); format: functional
# T1 sequence (Q9H0H5 whole entry): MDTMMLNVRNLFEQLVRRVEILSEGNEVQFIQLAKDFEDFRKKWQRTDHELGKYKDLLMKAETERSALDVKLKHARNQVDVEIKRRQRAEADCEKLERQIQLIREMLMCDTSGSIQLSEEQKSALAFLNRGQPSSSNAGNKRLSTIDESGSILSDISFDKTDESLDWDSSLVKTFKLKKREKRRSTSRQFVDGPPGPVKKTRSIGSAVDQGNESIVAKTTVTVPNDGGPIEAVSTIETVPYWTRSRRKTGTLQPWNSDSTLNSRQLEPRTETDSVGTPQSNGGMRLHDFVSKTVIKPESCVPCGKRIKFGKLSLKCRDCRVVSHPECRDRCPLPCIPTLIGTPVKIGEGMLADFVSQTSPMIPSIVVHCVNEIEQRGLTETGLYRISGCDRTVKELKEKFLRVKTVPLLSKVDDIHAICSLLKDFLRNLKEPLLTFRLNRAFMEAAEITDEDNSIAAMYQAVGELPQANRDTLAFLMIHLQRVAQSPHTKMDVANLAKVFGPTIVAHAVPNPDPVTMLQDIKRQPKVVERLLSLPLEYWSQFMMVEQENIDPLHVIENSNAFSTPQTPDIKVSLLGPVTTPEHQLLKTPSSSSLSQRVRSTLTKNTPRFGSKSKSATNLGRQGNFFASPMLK
# Major prion protein = Major prion protein (Homo sapiens, UniProt P04156); format: functional, cell-based
# cells [12] = experiment: cells
# [13] = target: SWI/SNF-related matrix-associated actin-dependent regulator of chromatin subfamily A member 2 (Homo sapiens, UniProt P51531); experiment: Luminescence-based cell-based high throughput dose response assay to identify activators of the function of SWI/SNF related, matrix associated, actin dependent regulator of chromatin, subfamily a, member 2 (SMARCA2, BRM).; format: functional
# [14] = Counterscreen for activators of the function of SWI/SNF related, matrix associated, actin dependent regulator of chromatin, subfamily a, member 2 (SMARCA2, BRM): Luminescence-based cell-based high throughput dose response assay to identify non-selective compounds using the VP16 reporter assay.; format: functional
# [15] = target: NAD-dependent protein deacylase sirtuin-5, mitochondrial (Homo sapiens, UniProt Q9NXA8); experiment: SIRT5 deacylase inhibitors, dose response, biochemical, fluorescence imaging, cherry-pick, set 6 (AID 720597)
# H9c2 = experiment: cells; format: functional, cell-based; details: Rattus norvegicus, H9c2, Myocardium;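 also: confirmatory concentration-response retest of ultra-high-throughput screening hits for modulation of myocardial damage; cell death induced by hydrogen peroxide oxidative stress; compound pretreatment for 60 min then peroxide exposure for 2 h; potency is for protecting the cells against peroxide damage rather than for killing them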
# Vero = experiment: Vero cell toxicity, dose response, cytotoxicity control, plate reader, cherry-pick samples (AID 687020); format: functional, cell-based; details: Chlorocebus sabaeus
# [16] = target: T2, RNA-binding protein pos-1 (Caenorhabditis elegans, UniProt G5EF15); experiment: inhibitors of POS-1/mex-3 RNA binding, dose response, biochemical, fluorescence polarization (AID 1964);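 also: purified POS-1 fused to maltose binding protein made in E. coli; potency of compounds blocking POS-1 binding to fluorescent RNA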
# T2 sequence (G5EF15 whole entry): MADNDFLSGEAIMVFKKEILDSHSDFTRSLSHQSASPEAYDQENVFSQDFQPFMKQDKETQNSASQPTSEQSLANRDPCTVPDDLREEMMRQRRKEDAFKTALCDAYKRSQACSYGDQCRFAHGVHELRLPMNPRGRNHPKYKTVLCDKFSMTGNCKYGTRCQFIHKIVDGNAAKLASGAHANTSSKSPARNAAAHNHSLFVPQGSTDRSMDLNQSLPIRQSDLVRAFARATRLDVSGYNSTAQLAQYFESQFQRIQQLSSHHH
# [17] = target: T3, Zinc finger protein mex-5 (Caenorhabditis elegans, UniProt Q9XUB2); experiment: MEX-5/TCR-2 RNA interaction inhibitors, dose response, biochemical, C. elegans, fluorescence polarization (AID 1960)
# T3 sequence (Q9XUB2 whole entry): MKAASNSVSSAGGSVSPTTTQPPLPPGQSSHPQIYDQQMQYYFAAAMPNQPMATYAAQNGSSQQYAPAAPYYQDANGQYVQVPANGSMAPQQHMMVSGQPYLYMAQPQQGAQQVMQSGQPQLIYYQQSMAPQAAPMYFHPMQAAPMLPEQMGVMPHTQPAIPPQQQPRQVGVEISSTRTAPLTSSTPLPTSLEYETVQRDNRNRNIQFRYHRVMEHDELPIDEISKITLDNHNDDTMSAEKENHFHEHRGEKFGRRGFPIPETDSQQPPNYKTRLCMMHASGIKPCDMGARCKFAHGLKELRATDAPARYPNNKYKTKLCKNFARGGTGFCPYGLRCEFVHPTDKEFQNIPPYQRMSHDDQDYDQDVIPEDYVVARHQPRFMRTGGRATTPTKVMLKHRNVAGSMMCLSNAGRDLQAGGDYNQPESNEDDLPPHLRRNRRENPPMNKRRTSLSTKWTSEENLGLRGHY
# cells [18] = format: functional, cell-based
# [19] = target: T4, Nuclear receptor subfamily 0 group B member 1 (Homo sapiens, UniProt P51843); format: functional, cell-based;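 also: HEK293T cells transfected with SF-1 and DAX-1 plus StAR promoter luciferase reporter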
# T4 sequence (P51843 whole entry): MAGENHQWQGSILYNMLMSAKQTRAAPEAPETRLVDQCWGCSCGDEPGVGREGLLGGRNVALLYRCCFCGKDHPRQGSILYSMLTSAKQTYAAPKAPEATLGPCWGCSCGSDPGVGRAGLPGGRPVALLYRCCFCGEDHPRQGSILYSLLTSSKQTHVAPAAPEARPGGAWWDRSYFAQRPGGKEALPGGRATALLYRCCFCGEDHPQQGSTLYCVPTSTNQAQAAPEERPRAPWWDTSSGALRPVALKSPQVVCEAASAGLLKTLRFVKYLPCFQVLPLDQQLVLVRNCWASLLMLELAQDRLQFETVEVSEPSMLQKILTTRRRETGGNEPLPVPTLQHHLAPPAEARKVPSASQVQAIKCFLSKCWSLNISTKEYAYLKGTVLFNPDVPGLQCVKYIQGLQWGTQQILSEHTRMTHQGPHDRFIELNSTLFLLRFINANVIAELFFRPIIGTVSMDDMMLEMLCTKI
# [20] = target: 1-phosphatidylinositol 4,5-bisphosphate phosphodiesterase gamma-1 (Homo sapiens, UniProt P19174); experiment: Counterscreen for inhibitors of phospholipase C isozymes (PLC-B3): Fluorescence-based biochemical high throughput dose response assay to identify inhibitors of phospholipase C isozymes (PLC-gamma1).
# [21] = target: 1-phosphatidylinositol 4,5-bisphosphate phosphodiesterase beta-3 (Homo sapiens, UniProt Q01970); experiment: Fluorescence-based biochemical high throughput dose response assay to identify inhibitors of phospholipase C isozymes (PLC-B3).
# [22] = inhibitors of HIV Env-driven cell fusion, dose response, cherry-pick (AID 652057); format: functional, cell-based
# [23] = ZM109 Env clade C HIV-1 fusion inhibitors, dose response, HeLa effector, CEM target cells, luciferase, cherry-pick (AID 652058); format: functional, cell-based
# [24] = inhibitors of clade B AD8 Env fusion, dose response, cell-based, cherry-pick (AID 652062); format: functional;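 also: luciferase signal from cell-cell fusion driven by HIV-1 clade B AD8 Env; potency is for inhibitors of fusion seen as a drop in luminescence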
# [25] = CEM21 lymphoblast cell cytotoxicity, dose response, cytotoxicity control for viral fusion inhibitor project, CellTiter-Glo luminescence, cherry-picked (AID 652042); format: functional, cell-based;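 also: potency for signal decrease meaning cytotoxicity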
# [26] = off-target signal loss in HeLa-CEM21 co-culture – HeLa F-luc CTL cells, cherry-picked, counter-screen for HIV-1 Env fusion inhibitor project, dose response (AID 652040); format: functional, cell-based;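 also: potency for signal decrease marking cytotoxic or nonspecific inhibition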
# [27] = HEK293T cytotoxicity, dose response, cytotoxicity control for miR-122 modulator project, cell-based, activator set, cherry-pick (AID 720690); format: functional;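 also: HEK293T human cells scored for general mammalian cytotoxicity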
smiles,measurement,setting,value
C[C@H](CO)N1C[C@H](C)[C@H](CN(C)C(=O)c2cccc(F)c2)Oc2ncc(-c3ccccc3)cc2C1=O,AC50,[1],> 52 µM (inactive)
CC1(C)CC(=O)C=C(C#CC2(O)CCCCC2)C1,AC50,Paired box protein Pax-8,4.34 µM (active)
same,AC50,[2],64.8 µM (active)
Cc1ccc2nc(C)c3c(c2c1)OC(C(C)(Cl)Br)C3 (configuration not stated),AC50,HeLa,> 52 µM (inactive)
COc1ccc(-c2ccc([C@H]3[C@@H]4CN(S(=O)(=O)c5cccc(C)c5)C[C@H]3N4)cc2)cc1,AC50,[3],1.48 µM (active)
same,AC50,[4],20.8 µM (active)
same,AC50,[5],1.99 µM (active)
same,AC50,[6],2 µM (active)
same,AC50,[7],> 39 µM (inactive)
same,AC50,[8],1.86 µM (active)
O=C(Nc1cccc(F)c1)N1CCCCN2[C@H](CO)[C@@H](c3ccc(-c4ccccc4F)cc3)[C@H]2C1,AC50,Paired box protein Pax-8,10.2 µM (active)
same,AC50,[9],21.9 µM (active)
same,AC50,[10],50.9 µM (active)
same,AC50,[2],57.4 µM (active)
CC(C)c1nc(SCC(=O)Nc2ccc(N(C)C)cc2)c2ccccc2n1,IC50,[11],196 µM (active)
same,IC50,Major prion protein,2.94 µM (active)
same,IC50,cells [12],58.2 µM (inactive)
O=Cc1ccc2noc(-c3ccc(Cl)cc3)c2c1,EC50,[13],> 91.1 µM (inactive)
same,EC50,[14],> 91.2 µM (inactive)
CN(C)C(=O)c1cccc(-c2ccccc2[C@H]2[C@@H](C#N)N(C(=O)C3CC3)[C@@H]2CO)c1,AC50,[15],> 32 µM (inactive)
COc1cccc(NC(=O)COc2cccc3c2CCNC3=O)c1,IC50,H9c2,> 79 µM (inactive)
same,AC50,Vero,37.2 µM (active)
CCCCNC(=O)c1cc2c(=O)n3cccc(C)c3nc2n(Cc2ccncc2)c1=N,EC50,[16],24.3 µM (inconclusive)
same,EC50,[17],39.6 µM (inconclusive)
same,EC50,[13],> 91.1 µM (inactive)
same,EC50,[14],> 91.1 µM (inactive)
N=C(N)NS(=O)(=O)c1ccc(NC(=S)NC(=O)c2ccc3c(c2)OCO3)cc1,IC50,Major prion protein,15.1 µM (inactive)
same,IC50,cells [12],> 138 µM (inactive)
C[C@@H]1CN([C@@H](C)CO)C(=O)c2cccc(NS(C)(=O)=O)c2O[C@@H]1CN(C)C(=O)Nc1ccc2c(c1)OCO2,AC50,HeLa,21.1 µM (active)
Cc1ccc(C)c(NC(=O)CN2C(=O)C3CC=CCC3C2=O)c1 (configuration not stated),AC50,Vero,35.8 µM (active)
COc1ccc(OC)c(-c2nnc3n2N=C(c2ccc(OC)c(OC4CCOC4)c2)CS3)c1 (configuration not stated),IC50,cells [18],> 67.5 µM (inactive)
same,IC50,[19],> 67.5 µM (inactive)
same,AC50,Paired box protein Pax-8,2.71 µM (active)
CCCC#Cc1ccc2c(c1)O[C@@H](CN(C)C(=O)Nc1ccccc1F)[C@H](C)CN([C@H](C)CO)S2(=O)=O,AC50,[15],> 30 µM (inactive)
CC(C)(C)C1CCC(C(=O)Nc2ccccc2)CC1 (configuration not stated),IC50,[20],> 122 µM (inactive)
same,IC50,[21],> 122 µM (inactive)
C[C@@H]1CN([C@@H](C)CO)C(=O)Cc2cc(NC(=O)Nc3ccc4c(c3)OCO4)ccc2O[C@H]1CN(C)Cc1ccc(Cl)c(Cl)c1,AC50,[22],23.5 µM (active)
same,AC50,[23],21.8 µM (active)
same,AC50,[24],25 µM (active)
same,AC50,[5],5.32 µM (active)
same,AC50,[7],> 39 µM (inactive)
COC(=O)N1[C@H](C)C=C[C@]1(Cc1ccccc1)C(=O)NCCCNc1ncc(C(F)(F)F)cc1Cl,AC50,[22],3.42 µM (active)
same,AC50,[25],48.6 µM (active)
same,AC50,[23],6.11 µM (active)
same,AC50,[26],6.96 µM (active)
same,AC50,[24],11.9 µM (active)
C[C@H]1CN([C@@H](C)CO)S(=O)(=O)c2ccc(C#Cc3ccccc3F)cc2O[C@@H]1CN(C)C(=O)c1ccc2c(c1)OCO2,AC50,[27],19.5 µM (active)
same,AC50,[3],2.06 µM (active)
same,AC50,[4],33.7 µM (active)
same,AC50,[5],1.66 µM (active)
same,AC50,[6],1.55 µM (active)
same,AC50,[8],1.71 µM (active)
